Test results as given in patent US7977352B2, “Triazolopyridine compounds useful for the treatment of degenerative and inflammatory diseases” (Galapagos NV, priority 2006, dated 2011).

Assays:
[1] = system: MMP1 expression by activated synovial fibroblasts (RASFs); assay: MMP assay: MMP1 expression by RASFs triggered with TNF-α (MMP1 ELISA); format: cell-based; conditions: Fibroblast, 48 h, TNF-α trigger 10 ng/mL, semi-quantitative score, read-out: REDUCTION MMP1/TNFa
Protocol: A 384-well format ELISA for measurement of MMP1 is developed. Various primary antibodies are tested, as well as various ELISA protocols. The following protocol is developed and validated to measure MMP1 levels in SF supernatant in 384 well plates: white Lumitrac 600 384 well plates (Greiner) are coated with 2 μg/mL anti-MMP1 antibody MAB1346 (Chemicon). The antibody is diluted in buffer 40 (1.21 g Tris base (Sigma), 0.58 g NaCl (Calbiochem) and 5 mL 10% NaN3 (Sigma) in 1 L milliQ water and adjusted to pH 8.5). After overnight incubation at 4° C., plates are washed with PBS (80 g NaCl, 2 g KCl (Sigma), 11.5 g Na2HPO4.7H2O and 2 g KH2PO4 in 10 L milliQ; pH 7.4) and blocked with 100 μL/well Casein buffer (2% Casein (VWR International) in PBS). Next day, casein buffer is removed from ELISA plates and replaced by 50 μL/well EC buffer (4 g casein, 2.13 g Na2HPO4 (Sigma), 2 g bovine albumin (Sigma), 0.69 g NaH2PO4.H2O (Sigma), 0.5 g CHAPS (Roche), 23.3 g NaCl, 4 mL 0.5 M EDTA pH 8 (Invitrogen), 5 mL 10% NaN3 in 1 L milliQ and adjusted to pH 7.0). 0.25 mM DTT (Sigma) is added to the thawed sample plates. After removal of the EC buffer, 20 μL of sample is transferred to the ELISA plates. After overnight incubation at 4° C. plates are washed twice with PBS and once with PBST (PBS with 0.05% Tween-20 (Sigma)) and incubated with 35 μL/well biotinylated anti-MMP1 antibody solution (R&D). This secondary antibody is diluted in buffer C (0.82 g NaH2PO4.H2O, 4.82 g Na2HPO4, 46.6 g NaCl, 20 g bovine albumin and 4 mL 0.5M EDTA pH 8 in 2 L milliQ and adjusted to pH 7.0) at a concentration of 5 μg/mL. After 2 h of incubation at RT, plates are washed as described above and incubated with 50 μL/well streptavidin-HRP conjugate (Biosource). Streptavidin-HRP conjugate is diluted in buffer C at a concentration of 0.25 μg/mL. After 45 min, plates are washed as described above and incubated for 5 min with 50 μL/well BM Chem ELISA Substrate (Roche). Readout is performed on the Luminoscan Ascent Luminometer (Labsystems) with an integration time of 200 msec or with an Envision reader (Perkin Elmer).
SFs were acquired at passage 1 from a commercial supplier (Cell applications, Inc.). SFs are cultured in DMEM supplemented with 10% heat-inactivated FBS, 1× penicillin/streptomycin (Invitrogen) at 37° C., 10% CO2 until passage 6. Aliquots of the cells are frozen and cryopreserved in liquid nitrogen. Starting from a cryopreserved aliquot, cells are further expanded by sub-culturing cells at 1/3 ratio every week. Cells between passage 10 and 12 are routinely used in compound testing according to following protocol.
Starting from the compound master stocks (all at 10 mM concentration in 100% DMSO) a 3-fold serial dilution is made in 96-well plates in 100% DMSO. Then, plates are further diluted 45-fold in M199 medium supplemented with 1% heat-inactivated FBS to obtain a intermediate work stock.
At day 1, RASFs are seeded in 96 well plates (flat bottom, tissue culture treated, Greiner) at a density of 3000 cells/well in complete synovial growth medium (Cell Applications). Day 5, the medium is completely removed from the cells, and replaced by 81 μL of M199 medium supplemented with 1% heat-inactivated FBS followed by addition of 10 μL compound out of the intermediate work stock. After an incubation period of 90 minutes, which allows the compounds to equilibrate and enter the cells, cells are stimulated with either TNF-α or ‘complex trigger’. TNF-α trigger is added in a volume of […] to obtain final concentration of 10 ng/mL. For that, TNF-α stock (PeproTech) at 10 μg/mL was diluted to 100 ng/mL TNF-a in M199 medium supplemented with 1% FBS. ‘Complex trigger’ mix is added in a volume of 20 μL to obtain a final concentration of 12.5%. For that, ‘complex trigger’ mix, is diluted to 80% with M199 medium supplemented with 1% FBS. […]

[2] = target: T1, TAK1-TAB1 fusion protein (Homo sapiens, UniProt O43318); assay: In vitro TAK1 kinase assay; format: biochemical; conditions: casein substrate, [33P]-γ-ATP, 90 minutes at 30° C., semi-quantitative score, read-out: POTENCY TAK1 (MAP3K7)
T1 construct: purchased Upstate 14-600
T1 sequence (O43318 with tags, fused parts or gaps limits assumed): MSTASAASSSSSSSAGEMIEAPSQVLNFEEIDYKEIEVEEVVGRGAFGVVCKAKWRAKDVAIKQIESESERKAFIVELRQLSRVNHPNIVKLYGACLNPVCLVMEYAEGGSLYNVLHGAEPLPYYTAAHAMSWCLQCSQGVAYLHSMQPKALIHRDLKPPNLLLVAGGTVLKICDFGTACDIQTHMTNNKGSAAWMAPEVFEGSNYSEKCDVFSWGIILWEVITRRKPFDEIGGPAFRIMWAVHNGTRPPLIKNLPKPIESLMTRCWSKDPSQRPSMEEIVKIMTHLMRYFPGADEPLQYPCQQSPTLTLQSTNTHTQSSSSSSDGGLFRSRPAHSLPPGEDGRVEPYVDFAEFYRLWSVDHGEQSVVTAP
Protocol: For assessing TAK1 inhibition, active TAK1-TAB1 fusion protein was used from Upstate (Cat. No, 14-600). Kinase reactions are set up in 96-well polypropylene plates in 25 μL containing 0.5 mU TAK1-TAB1 fusion protein, 5mM ATP, 0.01 μCi/μL [^33P]-γ-ATP, 0.1 mg/mL casein substrate in 1× reaction buffer containing 10 mM MOPS pH 7.0, 1 mM EDTA.
Starting from the compound master stocks (all at 10 mM concentration in 100% DMSO) a 3-fold serial dilution is made in 96-well plates in 100% DMSO. Plates are further diluted […] in H2O containing 3.5% DMSO, to obtain an intermediate work stock with compounds at 5× the final assay concentration in 5% DMSO.
5 μL of the intermediate stock is transferred into V-bottom 96 well polypropylene plates and 11 μL of Enzyme mix is added. Enzyme mix is made by combining 5 μL 5× reaction buffer ([…] pH 7.0, 1 mM EDTA), 5 μL casein (Sigma) diluted in H20 to 0.5 mg/mL and 1 μL of TAK1-TAB1 fusion protein that was prediluted to 0.5 mU/μL in 1× enzyme dilution buffer (20 mM MOPS pH 7.0, 0.1 mM EDTA, 0.01% Brij-35, 5% glycerol, 1 mM DTT, 1 mg/ml BSA).
The reactions are started by the addition of 9 μL of mixture containing ATP (20.83 uM) and [^33P]-γ-ATP (0.028 μCi/μL).
The assay is stopped 90 minutes after incubation at 30° C. by the addition of 25 μL phosphoric acid (150 mM). The label incorporated into the casein substrate is separated from labeled unincorporated ATP by filtration onto 96-well filter plates using a harvester device. After 6 washes with 75 mM phosphoric acid, the bottom of the filter plates are sealed, and incorporated label is quantified after addition of 40 μL scintillation fluid using TopCount.

| SMILES | IC50 [2] [µM] | IC50 [1] [µM] |
| --- | --- | --- |
| CCN1CCN(c2ccc(Nc3ccc(-c4ccnc(OC)c4)n4ncnc34)cc2)CC1 [Example 26, N-[4-(4-ethylpiperazin-1-yl)phenyl]-5-(2-methoxypyridin-4-yl)[1,2,4]triazolo[1,5-a]pyridin-8-amine] | > 10 | 1 to 5 |
| CCCN1CCN(c2ccc(Nc3ccc(-c4ccnc(OC)c4)n4ncnc34)cc2)CC1 [Example 27, 5-(2-methoxypyridin-4-yl)-N-[4-(4-propylpiperazin-1-yl)phenyl][1,2,4]triazolo[1,5-a]pyridin-8-amine] | > 10 | 1 to 5 |
| CCC(CC)N1CCN(c2ccc(Nc3ccc(-c4ccnc(OC)c4)n4ncnc34)cc2)CC1 [Example 28, N-{4-[4-(1-ethylpropyl)piperazin-1-yl]phenyl}-5-(2-methoxypyridin-4-yl)[1,2,4]triazolo[1,5-a]pyridin-8-amine] | > 10 | 1 to 5 |
| COc1cc(-c2ccc(Nc3ccc(N4CCN(CCC(C)C)CC4)cc3)c3ncnn23)ccn1 [Example 29, 5-(2-methoxypyridin-4-yl)-N-{4-[4-(3-methylbutyl)piperazin-1-yl]phenyl}[1,2,4]triazolo[1,5-a]pyridin-8-amine] | > 10 | 1 to 5 |
| COc1cc(-c2ccc(Nc3ccc(N4CCN(C5CC5)CC4)cc3)c3ncnn23)ccn1 [Example 30, N-[4-(4-cyclopropylpiperazin-1-yl)phenyl]-5-(2-methoxypyridin-4-yl)[1,2,4]triazolo[1,5-a]pyridin-8-amine] | > 10 | 1 to 5 |
| COc1cc(-c2ccc(Nc3ccc(N4CCN(C5CCC5)CC4)cc3)c3ncnn23)ccn1 [Example 31, N-[4-(4-cyclobutylpiperazin-1-yl)phenyl]-5-(2-methoxypyridin-4-yl)[1,2,4]triazolo[1,5-a]pyridin-8-amine] | > 10 | 5 to 10 |
| COc1cc(-c2ccc(Nc3ccc(N4CCN(C5CCCCC5)CC4)cc3)c3ncnn23)ccn1 [Example 32, N-[4-(4-cyclohexylpiperazin-1-yl)phenyl]-5-(2-methoxypyridin-4-yl)[1,2,4]triazolo[1,5-a]pyridin-8-amine] | > 10 | 5 to 10 |

Second part, led by results:

| IC50 [2] [µM] | SMILES | IC50 [1] [µM] |
| --- | --- | --- |
| < 0.5 | O=c1cc(-c2ccc(Nc3ccc(N4CCNCC4)cc3)c3ncnn23)cc[nH]1 [Example 33, 4-{8-[(4-piperazin-1-ylphenyl)amino][1,2,4]triazolo[1,5-a]pyridin-5-yl}pyridin-2(1H)-one] | 1 to 5 |
| < 0.5 | CCC(CC)N1CCN(c2ccc(Nc3ccc(-c4cn[nH]c4)n4ncnc34)cc2)CC1 [Example 34, N-{4-[4-(1-ethylpropyl)piperazin-1-yl]phenyl}-5-(1H-pyrazol-4-yl)[1,2,4]triazolo[1,5-a]pyridin-8-amine] | 1 to 5 |
| < 0.5 | c1nc2c(Nc3ccc(N4CCN(C5CCC5)CC4)cc3)ccc(-c3cn[nH]c3)n2n1 [Example 35, N-[4-(4-cyclobutylpiperazin-1-yl)phenyl]-5-(1H-pyrazol-4-yl)[1,2,4]triazolo[1,5-a]pyridin-8-amine] | > 10 |
| > 10 | NC(=O)c1cccc(-c2ccc(Nc3ccc(N4CCOCC4)cc3)c3ncnn23)c1 [Example 43, 3-{8-[(4-morpholin-4-ylphenyl)amino][1,2,4]triazolo[1,5-a]pyridin-5-yl}benzamide] | > 10 |
| > 10 | CC(C)N1CCN(c2ccc(Nc3ccc(-c4cccc(C(N)=O)c4)n4ncnc34)cc2)CC1 [Example 44, 3-(8-{[4-(4-isopropylpiperazin-1-yl)phenyl]amino}[1,2,4]triazolo[1,5-a]pyridin-5-yl)benzamide] | 1 to 5 |
| > 10 | NC(=O)c1cc(-c2ccc(Nc3ccc(N4CCOCC4)cc3)c3ncnn23)ccc1F [Example 45, 2-fluoro-5-{8-[(4-morpholin-4-ylphenyl)amino][1,2,4]triazolo[1,5-a]pyridin-5-yl}benzamide] | > 10 |
| > 10 | CC(C)N1CCN(c2ccc(Nc3ccc(-c4ccc(F)c(C(N)=O)c4)n4ncnc34)cc2)CC1 [Example 46, 2-fluoro-5-(8-{[4-(4-isopropylpiperazin-1-yl)phenyl]amino}[1,2,4]triazolo[1,5-a]pyridin-5-yl)benzamide] | > 10 |
| > 10 | c1cc(-c2ccc(Nc3ccc(N4CCOCC4)cc3)c3ncnn23)c2cc[nH]c2c1 [Example 48, 5-(1H-indol-4-yl)-N-(4-morpholin-4-ylphenyl)[1,2,4]triazolo[1,5-a]pyridin-8-amine] | 1 to 5 |
| 1 to 5 | CC(C)N1CCN(c2ccc(Nc3ccc(-c4cccc5[nH]ccc45)n4ncnc34)cc2)CC1 [Example 49, 5-(1H-indol-4-yl)-N-[4-(4-isopropylpiperazin-1-yl)phenyl][1,2,4]triazolo[1,5-a]pyridin-8-amine] | > 10 |
| > 10 | c1nc2c(Nc3ccc(N4CCOCC4)cc3)ccc(-c3ccc4[nH]ccc4c3)n2n1 [Example 50, 5-(1H-indol-5-yl)-N-(4-morpholin-4-ylphenyl)[1,2,4]triazolo[1,5-a]pyridin-8-amine] | 1 to 5 |
